Data: article PMC5999115, “Anti-tumor activity of phenoxybenzamine and its inhibition of histone deacetylases” (PLoS ONE, 2018)

What was measured:
Assay in all cases: Oncotest CellTiter-Blue cell viability assay, 72 hours
Type in all cases: cell-based, human
CNXF U-251 = test system: CNXF U-251
Protocol: (§1) Further studies with varying drug concentrations on selected human cell lines, in most cases those studied in the NCI60 screen, were conducted by Oncotest GmbH laboratories, Freiburg, Germany; Oncotest is a division of Charles River Laboratories. The dissolution procedure for PBZ and the cell culture […] was 72 hours; anti-tumor activity was determined with the CellTiter-Blue® Cell Viability Assay, Promega, Mannheim, Germany. The 50% Inhibitory (IC50) concentrations were determined. The results are the average of duplicate assays. Paclitaxel was included as a reference compound to confirm the integrity of the assays. See S1 Appendix for further details.
(§2) “Cell lines were routinely passaged once or twice weekly and maintained in culture for up to 20 passages. Cells were grown at 37°C in a humidified atmosphere with 5% CO2 in RPMI 1640 medium (25 mM HEPES, with L-glutamine, #FG1385, Biochrom, Berlin, Germany) supplemented with 10% (v/v) fetal calf serum (Sigma, Taufkirchen, Germany) and 0.1 mg/mL gentamicin (Life Technologies, Karlsruhe, Germany).”

MAXF T47D = test system: MAXF T47D
Protocol: as §1, §2

MEXF UACC-257 = test system: MEXF UACC-257
Protocol: as §1, §2

PRXF PC-3 = test system: PRXF PC-3
Protocol: as §1, §2

MMXF RPMI 8226 = test system: MMXF RPMI 8226
Protocol: as §1, §2

LXFA NCI-H522 = test system: LXFA NCI-H522
Protocol: as §1, §2

[1] = CNXF U-251, 1% FCS, study P495C
[2] = CNXF U-251, 10% FCS, study P495A
[3] = MEXF UACC-257, 1% FCS, study P495C
[4] = MEXF UACC-257, 10% FCS, study P495A
[5] = PRXF PC-3, 10% FCS, study P495A
[6] = PRXF PC-3, 10% FCS, study P495B
[7] = MMX RPMI8226, 1% FCS, study P495C
[8] = MMX RPMI8226, 10% FCS, study P495A
[9] = MMX RPMI8226, 10% FCS, study P495B
[10] = LXFA NCI-H522, 1% FCS, study P495C
[11] = LXFA NCI-H522, 10% FCS, study P495A
[12] = LXFA NCI-H522, 10% FCS, study P495B

## CC(COc1ccccc1)N(CCCl)Cc1ccccc1 (stereo not shown) [PBZ, phenoxybenzamine]
CNXF U-251; [1]
  Test/Control (%) at Drug Concentration [uM] 1,0E+00: 98%
  Test/Control (%) at Drug Concentration [uM] 1,0E+01: 102%
  Test/Control (%) at Drug Concentration [uM] 1,0E+02: 36%
  Test/Control (%) at Drug Concentration [uM] 3,2E+00: 102%
  Test/Control (%) at Drug Concentration [uM] 3,2E+01: 98%
CNXF U-251; [2]
  Test/Control (%) at Drug Concentration [uM] 1,0E+00: 92%
  Test/Control (%) at Drug Concentration [uM] 1,0E+01: 103%
  Test/Control (%) at Drug Concentration [uM] 1,0E+02: 98%
  Test/Control (%) at Drug Concentration [uM] 1,0E-01: 90%
  Test/Control (%) at Drug Concentration [uM] 1,0E-02: 90%
  Test/Control (%) at Drug Concentration [uM] 3,2E+00: 94%
  Test/Control (%) at Drug Concentration [uM] 3,2E+01: 118%
  Test/Control (%) at Drug Concentration [uM] 3,2E-01: 93%
  Test/Control (%) at Drug Concentration [uM] 3,2E-02: 93%
  Test/Control (%) at Drug Concentration [uM] 3,2E-03: 85%
CNXF U-251; Homo sapiens, CNXF U-251 CNS, 1% FCS
  IC50: 83.1 µM
MAXF T47D; 10 μM phenoxybenzamine, T47D
  Percent cell growth in Oncotest screen with 10% FCS (72 hr incubation): 97%
MAXF T47D; Homo sapiens, MAXF T47D Mammary, 1% FCS
  IC50: 83.4 µM
MAXF T47D; MAX T47D, 1% FCS, study P495C
  Test/Control (%) at Drug Concentration [uM] 1,0E+00: 98%
  Test/Control (%) at Drug Concentration [uM] 1,0E+01: 96%
  Test/Control (%) at Drug Concentration [uM] 1,0E+02: 37%
  Test/Control (%) at Drug Concentration [uM] 3,2E+00: 99%
  Test/Control (%) at Drug Concentration [uM] 3,2E+01: 92%
MAXF T47D; MAX T47D, 10% FCS, study P495A
  Test/Control (%) at Drug Concentration [uM] 1,0E+00: 101%
  Test/Control (%) at Drug Concentration [uM] 1,0E+01: 97%
  Test/Control (%) at Drug Concentration [uM] 1,0E+02: 74%
  Test/Control (%) at Drug Concentration [uM] 1,0E-01: 97%
  Test/Control (%) at Drug Concentration [uM] 1,0E-02: 92%
  Test/Control (%) at Drug Concentration [uM] 3,2E+00: 102%
  Test/Control (%) at Drug Concentration [uM] 3,2E+01: 95%
  Test/Control (%) at Drug Concentration [uM] 3,2E-01: 97%
  Test/Control (%) at Drug Concentration [uM] 3,2E-02: 92%
  Test/Control (%) at Drug Concentration [uM] 3,2E-03: 97%
MAXF T47D; MAX T47D, 10% FCS, study P495B
  Test/Control (%) at Drug Concentration [uM] 1,0E+00: 80%
  Test/Control (%) at Drug Concentration [uM] 1,0E+01: 79%
  Test/Control (%) at Drug Concentration [uM] 1,0E+02: 57%
  Test/Control (%) at Drug Concentration [uM] 1,0E-01: 92%
  Test/Control (%) at Drug Concentration [uM] 1,0E-02: 93%
  Test/Control (%) at Drug Concentration [uM] 1,0E-03: 94%
  Test/Control (%) at Drug Concentration [uM] 3,2E+00: 79%
  Test/Control (%) at Drug Concentration [uM] 3,2E+01: 84%
MEXF UACC-257; 10 μM phenoxybenzamine, UACC-257
  Percent cell growth in Oncotest screen with 10% FCS (72 hr incubation): 107%
MEXF UACC-257; Homo sapiens, MEXF UACC-257 Melanoma, 1% FCS
  IC50: 49.8 µM
MEXF UACC-257; [3]
  Test/Control (%) at Drug Concentration [uM] 1,0E+00: 101%
  Test/Control (%) at Drug Concentration [uM] 1,0E+01: 107%
  Test/Control (%) at Drug Concentration [uM] 1,0E+02: 41%
  Test/Control (%) at Drug Concentration [uM] 3,2E+00: 106%
  Test/Control (%) at Drug Concentration [uM] 3,2E+01: 77%
MEXF UACC-257; [4]
  Test/Control (%) at Drug Concentration [uM] 1,0E+00: 101%
  Test/Control (%) at Drug Concentration [uM] 1,0E+01: 107%
  Test/Control (%) at Drug Concentration [uM] 1,0E+02: 68%
  Test/Control (%) at Drug Concentration [uM] 1,0E-01: 101%
  Test/Control (%) at Drug Concentration [uM] 1,0E-02: 101%
  Test/Control (%) at Drug Concentration [uM] 3,2E+00: 109%
  Test/Control (%) at Drug Concentration [uM] 3,2E+01: 106%
  Test/Control (%) at Drug Concentration [uM] 3,2E-01: 104%
  Test/Control (%) at Drug Concentration [uM] 3,2E-02: 113%
  Test/Control (%) at Drug Concentration [uM] 3,2E-03: 103%
PRXF PC-3; 10 μM phenoxybenzamine, PC-3
  Percent cell growth in Oncotest screen with 10% FCS (72 hr incubation): 86%
PRXF PC-3; Homo sapiens, PRXF PC-3 Prostate, 1% FCS
  IC50: 29.8 µM
PRXF PC-3; PRXF PC-3, 1% FCS, study P495C
  Test/Control (%) at Drug Concentration [uM] 1,0E+00: 102%
  Test/Control (%) at Drug Concentration [uM] 1,0E+01: 100%
  Test/Control (%) at Drug Concentration [uM] 1,0E+02: 22%
  Test/Control (%) at Drug Concentration [uM] 3,2E+00: 105%
  Test/Control (%) at Drug Concentration [uM] 3,2E+01: 58%
PRXF PC-3; [5]
  Test/Control (%) at Drug Concentration [uM] 1,0E+00: 86%
  Test/Control (%) at Drug Concentration [uM] 1,0E+01: 86%
  Test/Control (%) at Drug Concentration [uM] 1,0E+02: 52%
  Test/Control (%) at Drug Concentration [uM] 1,0E-01: 87%
  Test/Control (%) at Drug Concentration [uM] 1,0E-02: 83%
  Test/Control (%) at Drug Concentration [uM] 3,2E+00: 89%
  Test/Control (%) at Drug Concentration [uM] 3,2E+01: 82%
  Test/Control (%) at Drug Concentration [uM] 3,2E-01: 91%
  Test/Control (%) at Drug Concentration [uM] 3,2E-02: 87%
  Test/Control (%) at Drug Concentration [uM] 3,2E-03: 91%
PRXF PC-3; [6]
  Test/Control (%) at Drug Concentration [uM] 1,0E+00: 89%
  Test/Control (%) at Drug Concentration [uM] 1,0E+01: 77%
  Test/Control (%) at Drug Concentration [uM] 1,0E+02: 49%
  Test/Control (%) at Drug Concentration [uM] 1,0E-01: 84%
  Test/Control (%) at Drug Concentration [uM] 1,0E-02: 88%
  Test/Control (%) at Drug Concentration [uM] 1,0E-03: 81%
  Test/Control (%) at Drug Concentration [uM] 3,2E+00: 92%
  Test/Control (%) at Drug Concentration [uM] 3,2E+01: 74%
MMXF RPMI 8226; 10 μM phenoxybenzamine, RPMI 8226
  Percent cell growth in Oncotest screen with 10% FCS (72 hr incubation): 98%
MMXF RPMI 8226; Homo sapiens, MMXF RPMI 8226 Myeloma, 1% FCS
  IC50: 44.4 µM
MMXF RPMI 8226; [7]
  Test/Control (%) at Drug Concentration [uM] 1,0E+00: 102%
  Test/Control (%) at Drug Concentration [uM] 1,0E+01: 95%
  Test/Control (%) at Drug Concentration [uM] 1,0E+02: 5%
  Test/Control (%) at Drug Concentration [uM] 3,2E+00: 101%
  Test/Control (%) at Drug Concentration [uM] 3,2E+01: 77%
MMXF RPMI 8226; [8]
  Test/Control (%) at Drug Concentration [uM] 1,0E+00: 89%
  Test/Control (%) at Drug Concentration [uM] 1,0E+01: 98%
  Test/Control (%) at Drug Concentration [uM] 1,0E+02: 10%
  Test/Control (%) at Drug Concentration [uM] 1,0E-01: 83%
  Test/Control (%) at Drug Concentration [uM] 1,0E-02: 80%
  Test/Control (%) at Drug Concentration [uM] 3,2E+00: 87%
  Test/Control (%) at Drug Concentration [uM] 3,2E+01: 99%
  Test/Control (%) at Drug Concentration [uM] 3,2E-01: 84%
  Test/Control (%) at Drug Concentration [uM] 3,2E-02: 76%
  Test/Control (%) at Drug Concentration [uM] 3,2E-03: 86%
MMXF RPMI 8226; [9]
  Test/Control (%) at Drug Concentration [uM] 1,0E+00: 88%
  Test/Control (%) at Drug Concentration [uM] 1,0E+01: 94%
  Test/Control (%) at Drug Concentration [uM] 1,0E+02: 16%
  Test/Control (%) at Drug Concentration [uM] 1,0E-01: 100%
  Test/Control (%) at Drug Concentration [uM] 1,0E-02: 100%
  Test/Control (%) at Drug Concentration [uM] 1,0E-03: 100%
  Test/Control (%) at Drug Concentration [uM] 3,2E+00: 92%
  Test/Control (%) at Drug Concentration [uM] 3,2E+01: 95%
LXFA NCI-H522; 10 μM phenoxybenzamine, NCI-H522
  Percent cell growth in Oncotest screen with 10% FCS (72 hr incubation): 108%
LXFA NCI-H522; Homo sapiens, LXFA NCI-H522 Non-small-cell lung, 1% FCS
  IC50: 51.5 µM
LXFA NCI-H522; [10]
  Test/Control (%) at Drug Concentration [uM] 1,0E+00: 99%
  Test/Control (%) at Drug Concentration [uM] 1,0E+01: 99%
  Test/Control (%) at Drug Concentration [uM] 1,0E+02: 6%
  Test/Control (%) at Drug Concentration [uM] 3,2E+00: 106%
  Test/Control (%) at Drug Concentration [uM] 3,2E+01: 89%
LXFA NCI-H522; [11]
  Test/Control (%) at Drug Concentration [uM] 1,0E+00: 99%
  Test/Control (%) at Drug Concentration [uM] 1,0E+01: 108%
  Test/Control (%) at Drug Concentration [uM] 1,0E+02: 14%
  Test/Control (%) at Drug Concentration [uM] 1,0E-01: 96%
  Test/Control (%) at Drug Concentration [uM] 1,0E-02: 81%
  Test/Control (%) at Drug Concentration [uM] 3,2E+00: 107%
  Test/Control (%) at Drug Concentration [uM] 3,2E+01: 110%
  Test/Control (%) at Drug Concentration [uM] 3,2E-01: 98%
  Test/Control (%) at Drug Concentration [uM] 3,2E-02: 82%
  Test/Control (%) at Drug Concentration [uM] 3,2E-03: 76%
LXFA NCI-H522; [12]
  Test/Control (%) at Drug Concentration [uM] 1,0E+00: 100%
  Test/Control (%) at Drug Concentration [uM] 1,0E+01: 93%
  Test/Control (%) at Drug Concentration [uM] 1,0E+02: 29%
  Test/Control (%) at Drug Concentration [uM] 1,0E-01: 100%
  Test/Control (%) at Drug Concentration [uM] 1,0E-02: 100%
  Test/Control (%) at Drug Concentration [uM] 1,0E-03: 100%
  Test/Control (%) at Drug Concentration [uM] 3,2E+00: 100%
  Test/Control (%) at Drug Concentration [uM] 3,2E+01: 97%
